In article PMC7686313, “Phase 1 study of mTORC1/2 inhibitor sapanisertib (TAK-228) in advanced solid tumours, with an expansion phase in renal, endometrial or bladder cancer” (British Journal of Cancer, 2020):
Read-outs that look alike come from different tables or passages of the source.

Tests used:
[1] = Plasma pharmacokinetics (LC-MS/MS); assay type: in vivo, human; settings: human, plasma, oral
Protocol: Peripheral blood was collected serially to quantify plasma levels of sapanisertib for PK analysis via validated liquid chromatography tandem mass spectrometry with an assay range of 1–1000 ng/mL (MicroConstants, San Diego, CA), during both dose-escalation and expansion phases. Blood samples were collected before each dose and 0.5, 1, 2, 4, 8 and 24 h after dosing on cycle 1, day 1 and cycle 2, day 1, in the dose-escalation phase. In the expansion phase, samples were collected predose and 2, 4 and 6 h postdose on cycle 1, day 1, and then predose and 2 h postdose on day 8, 15 or 22 of cycle 1.

[2] = system: p4EBP1, pS6, pPRAS40 and pNDRG1 (TORC1/2 biomarkers); assay: Pharmacodynamics in skin biopsies (IHC); assay type: in vivo, human; settings: doses of ≥4 mg; baseline vs days 8–15 (3 h postdose) of cycle 1
Protocol: The tissue PK and PD of sapanisertib were investigated in skin and tumour biopsies. During dose escalation, 3-mm core skin biopsies were collected predose and on any day from 8–15 (3 h postdose) of cycle 1 for immunohistochemistry (IHC) assessment of mTORC1 downstream effects (p4EBP1, pS6) and pNDRG1 (Mosaic Laboratories, Lake Forest, CA). […] Archival tumour tissues for assessment of prognostic markers were collected at baseline.
During dose-escalation, the PD effect of sapanisertib on downstream effectors of TORC1 (p4EBP1 and pS6) and TORC2 (pPRAS40 and pNDRG1) was measured in skin-tissue biopsies from 88 patients collected at baseline and days 8–15 (3 h postdose) of cycle 1. […] PD data in tumour tissue were limited due to the small number of samples. For the five patients with paired tumour samples available for review (biopsies at baseline and cycle 1, week 2), the levels of p4EBP1, pS6, pPRAS40 and pNDRG1 decreased after sapanisertib treatment (Supplementary Fig. 4).

[3] = system: bladder cancer; assay: Tumour response according to RECIST v1.1, expansion phase, bladder cancer; assay type: in vivo, human; settings: expansion Bladder cancer (n = 13)
Text: Patients could be considered for enrolment in one of three disease-specific cohorts: (1) advanced or recurrent endometrial adenocarcinoma with disease progression following ≥1 prior chemotherapy regimen; (2) advanced/metastatic urothelial cancer (carcinoma of the bladder, ureter and/or renal pelvis), progressive after ≥1 prior therapy in the metastatic/unresectable setting; (3) advanced RCC after failure of ≥1 prior antivascular endothelial growth factor therapy with no prior TORC1 inhibitor therapy, or progressed on treatment with TORC1 inhibitor therapy.

[4] = parameters: method as in PMID 26800393; settings: advanced haematological malignancies, cited from earlier work

With `CC(C)n1nc(-c2ccc3oc(N)nc3c2)c2c(N)ncnc21` [Sapanisertib] as the molecule, how does the Cmax ([1]; 10 mg, cycle 1, day 1, 10 mg) read?
Its Cmax is 48.4 ng/mL.

What about the AUC(0-t) ([1]; 10 mg, cycle 1, day 1, 10 mg, read-out: AUC0–24h [%CV]) of the same molecule?
Its AUC(0-t) is 342 ng·h/mL.

What about the AUC(0-t) ([1]; 10 mg, cycle 1, day 1, 10 mg, read-out: AUC0–last [%CV]) of the same molecule?
Its AUC(0-t) is 153 ng·h/mL.

And the Tmax ([1]; 10 mg, cycle 1, day 1, 10 mg, read-out: Tmax, median)?
Its Tmax is 2.8 h.

What about the half-life ([1]; 10 mg, cycle 1, day 1, 10 mg, read-out: t½ (converted)) of the same molecule?
The half-life was 6.4 h.

What about the Cmax ([1]; 10 mg, cycle 2, day 1, QDx5dQW 10 mg) of the same molecule?
Its Cmax is 57 ng/mL.

And the AUC(0-t) ([1]; 10 mg, cycle 2, day 1, QDx5dQW 10 mg, read-out: AUC0–24h [%CV])?
The AUC(0-t) was 366 ng·h/mL.

What about the half-life ([1]; 10 mg, cycle 2, day 1, QDx5dQW 10 mg, read-out: t½ (converted)) of the same molecule?
The half-life was 5.7 h.

What about the Tmax ([1]; 10 mg, cycle 2, day 1, QW 10 mg, read-out: Tmax, median) of the same molecule?
Its Tmax is 2.9 h.

What about the Cmax ([1]; 12 mg, cycle 1, day 1, 12 mg) of the same molecule?
The Cmax was 99.5 ng/mL.

What about the AUC(0-t) ([1]; 12 mg, cycle 1, day 1, 12 mg, read-out: AUC0–24h [%CV]) of the same molecule?
The AUC(0-t) was 730 ng·h/mL.

What about the half-life ([1]; 12 mg, cycle 1, day 1, 12 mg, read-out: t½ (converted)) of the same molecule?
The half-life was 7.4 h.

What about the Cmax ([1]; 12 mg, cycle 2, day 1, QDx3dQW 12 mg) of the same molecule?
Its Cmax is 113 ng/mL.

And the AUC(0-t) ([1]; 12 mg, cycle 2, day 1, QDx3dQW 12 mg, read-out: AUC0–24h [%CV])?
The AUC(0-t) was 707 ng·h/mL.

And the Tmax ([1]; 12 mg, cycle 2, day 1, QDx3dQW 12 mg, read-out: Tmax, median)?
Its Tmax is 3.7 h.

What about the half-life ([1]; 12 mg, cycle 2, day 1, QDx3dQW 12 mg, read-out: t½ (converted)) of the same molecule?
Its half-life is 4.9 h.

What about the Cmax ([1]; 13 mg, cycle 1, day 1, 13 mg) of the same molecule?
The Cmax was 93.6 ng/mL.

And the AUC(0-t) ([1]; 13 mg, cycle 1, day 1, 13 mg, read-out: AUC0–24h [%CV])?
Its AUC(0-t) is 953 ng·h/mL.

What about the Tmax ([1]; 13 mg, cycle 1, day 1, 13 mg, read-out: Tmax, median) of the same molecule?
Its Tmax is 2.1 h.

And the half-life ([1]; 13 mg, cycle 1, day 1, 13 mg, read-out: t½ (converted))?
The half-life was 8.7 h.

What about the Cmax ([1]; 15 mg, cycle 1, day 1, 15 mg) of the same molecule?
Its Cmax is 56.7 ng/mL.

What about the AUC(0-t) ([1]; 15 mg, cycle 1, day 1, 15 mg, read-out: AUC0–24h [%CV]) of the same molecule?
Its AUC(0-t) is 518 ng·h/mL.

And the half-life ([1]; 15 mg, cycle 1, day 1, 15 mg, read-out: t½ (converted))?
Its half-life is 9.4 h.

What about the Cmax ([1]; 15 mg, cycle 2, day 1, QW 15 mg) of the same molecule?
The Cmax was 64.9 ng/mL.

And the AUC(0-t) ([1]; 15 mg, cycle 2, day 1, QW 15 mg, read-out: AUC0–24h [%CV])?
The AUC(0-t) was 604 ng·h/mL.

And the Cmax ([1]; 16 mg, cycle 1, day 1, 16 mg)?
Its Cmax is 66.7 ng/mL.

What about the AUC(0-t) ([1]; 16 mg, cycle 1, day 1, 16 mg, read-out: AUC0–24h [%CV]) of the same molecule?
The AUC(0-t) was 689 ng·h/mL.

And the Tmax ([1]; 16 mg, cycle 1, day 1, 16 mg, read-out: Tmax, median)?
Its Tmax is 2.1 h.

What about the half-life ([1]; 16 mg, cycle 1, day 1, 16 mg, read-out: t½ (converted)) of the same molecule?
Its half-life is 7 h.

What about the Cmax ([1]; 16 mg, cycle 2, day 1, QDx3dQW 16 mg) of the same molecule?
Its Cmax is 92.1 ng/mL.

What about the AUC(0-t) ([1]; 16 mg, cycle 2, day 1, QDx3dQW 16 mg, read-out: AUC0–24h [%CV]) of the same molecule?
Its AUC(0-t) is 744 ng·h/mL.

What about the Tmax ([1]; 16 mg, cycle 2, day 1, QDx3dQW 16 mg, read-out: Tmax, median) of the same molecule?
The Tmax was 2.1 h.

What about the Cmax ([1]; 20 mg, cycle 1, day 1, 20 mg) of the same molecule?
The Cmax was 154 ng/mL.

What about the AUC(0-t) ([1]; 20 mg, cycle 1, day 1, 20 mg, read-out: AUC0–24h [%CV]) of the same molecule?
Its AUC(0-t) is 1260 ng·h/mL.

And the Tmax ([1]; 20 mg, cycle 1, day 1, 20 mg, read-out: Tmax, median)?
Its Tmax is 2.1 h.

What about the half-life ([1]; 20 mg, cycle 1, day 1, 20 mg, read-out: t½ (converted)) of the same molecule?
The half-life was 6.5 h.

And the Tmax ([1]; 20 mg, cycle 2, day 1, QW 20 mg, read-out: Tmax, median)?
The Tmax was 4 h.

What about the Cmax ([1]; 30 mg, cycle 1, day 1, 30 mg) of the same molecule?
The Cmax was 162 ng/mL.

And the AUC(0-t) ([1]; 30 mg, cycle 1, day 1, 30 mg, read-out: AUC0–24h [%CV])?
Its AUC(0-t) is 1080 ng·h/mL.

What about the half-life ([1]; 30 mg, cycle 1, day 1, 30 mg, read-out: t½ (converted)) of the same molecule?
Its half-life is 5.9 h.

What about the Cmax ([1]; 30 mg, cycle 2, day 1, QW 30 mg) of the same molecule?
Its Cmax is 133 ng/mL.

What about the AUC(0-t) ([1]; 30 mg, cycle 2, day 1, QW 30 mg, read-out: AUC0–24h [%CV]) of the same molecule?
The AUC(0-t) was 1120 ng·h/mL.

What about the Tmax ([1]; 30 mg, cycle 2, day 1, QW 30 mg, read-out: Tmax, median) of the same molecule?
The Tmax was 4 h.

And the half-life ([1]; 30 mg, cycle 2, day 1, QW 30 mg, read-out: t½ (converted))?
The half-life was 5.7 h.

And the Cmax ([1]; 40 mg, cycle 1, day 1, 40 mg)?
The Cmax was 172 ng/mL.

And the AUC(0-t) ([1]; 40 mg, cycle 1, day 1, 40 mg, read-out: AUC0–24h [%CV])?
Its AUC(0-t) is 1640 ng·h/mL.

What about the Tmax ([1]; 40 mg, cycle 1, day 1, 40 mg, read-out: Tmax, median) of the same molecule?
Its Tmax is 2.4 h.

What about the half-life ([1]; 40 mg, cycle 1, day 1, 40 mg, read-out: t½ (converted)) of the same molecule?
The half-life was 7.6 h.

What about the Cmax ([1]; 40 mg, cycle 2, day 1, QW 40 mg) of the same molecule?
Its Cmax is 232 ng/mL.

What about the AUC(0-t) ([1]; 40 mg, cycle 2, day 1, QW 40 mg, read-out: AUC0–24h [%CV]) of the same molecule?
Its AUC(0-t) is 2220 ng·h/mL.

What about the half-life ([1]; 40 mg, cycle 2, day 1, QW 40 mg, read-out: t½ (converted)) of the same molecule?
Its half-life is 6.4 h.

And the Tmax ([1]; range across all doses, read-out: Median Tmax)?
Its Tmax is 1 to 2.8 h.

What about the half-life ([1]; range, 2–40 mg dose range, read-out: Mean plasma half-life) of the same molecule?
Its half-life is 5.9 to 9.4 h.

And the “Change in p4EBP1, pS6, pPRAS40 and pNDRG1 in skin” value [2]?
Its value is “Treatment-related decreases”.

What about the “Best overall response CR” value [3] of the same molecule?
The value was 0 n (%).

What about the “Best overall response PD” value [3] of the same molecule?
Its value is 8 (62) n (%).

And the “Best overall response PR” value [3]?
The value was 0 n (%).

And the “Best overall response SD < 6 months” value [3]?
The value was 4 (31) n (%).

And the “Best overall response SD ≥ 6 months” value [3]?
The value was 1 (8) n (%).

And the “CBR (CR + PR + SD ≥ 6 months)” value [3]?
The value was 1 (8) n (%).

What about the “ORR (CR + PR)” value [3] of the same molecule?
Its value is 0 n (%).

What about the MTD ([4]; QD dosing) of the same molecule?
The MTD was 4 mg.

What about the MTD ([4]; QD × 3dQW) of the same molecule?
Its MTD is 9 mg.
